Measurements reported in US4746663A, “Pyrazolo[4,3-d]pyrimidine derivative, process for its production, and antihyperlipidemic or antiatherosclerotic agent containing it” (Nissan Chemical Industries Ltd., priority 1985, dated 1988).
“Also recorded” adds a separate entry of the source.

How the values were obtained:
serum lipid = conditions: Science, 193, 903 (1976); J. Lipid Res., 12, 596 (1971); cited from earlier work
[1] = tested on: emulsion-induced hyperlipidemic rats; experiment: Test 1: antihyperlipidemic activity in emulsion-induced hyperlipidemic rats; assay type: in vivo, Male S.D. rats; conditions: via stomach tube daily, 3 days; for Reduction rate of serum Chol. / Increase rate of serum HDLChol.: vs control group; for Degree of hepatomegaly (change rate of the liver weight): liver weight per 100 g body weight vs control group
Protocol: The antihyperlipidemic activity in emulsion-induced hyperlipidemic rats:
Male S.D. rats weighing 80-90 g (4 weeks old) were used. They were divided into groups of 5 to 6 rats each. The test compounds suspended in 0.5% CMC-Na(carboxymethyl cellulose sodium salt) were given to the rats in a daily dose of 4 ml/kg via stomach tube every 10:00 a.m. After 30 min., lipids emulsion having the following composition was orally given to the rats in an amount of 2.5 ml per rat.
During the experimental period of 3 days, the rats were fed on a standard commercial diet and water ad libitum. […] The total cholesterol and HDL cholesterol were measured.
The weight of the liver was measured. To the control group, only the aqueous CMC-Na solution and the lipids emulsion were given.
The fractionation of lipoproteins was conducted by a dextran sulfate-MgCl2 precipitation method.
Cholesterol in serum was measured by means of a cholesterol measuring kit (Cholesterol C-Test Wako, manufactured by Wako Junyaku Co., Ltd.), and cholesterol in HDL was measured by means of NC Hi-Set, manufactured by Nippon Chemiphar Co., Ltd.
Further, the reduction rate of Chol was calculated by the following equation. [formula] where A is the amount of serum Chol (mg/dl) of the control group, and B is the amount of serum Chol (mg/dl) of the group to which the therapeutic agent was administered.
Likewise, the increase rate of HDL-Chol was calculated by the following equation. [formula] where C is the amount of serum HDL-Chol (mg/dl) of the control group, and D is the amount of serum HDL-Chol (mg/dl) of the group to which the therapeutic agent was administered.
The degree of hepatomegaly (i.e. the change rate of the liver weight) was calculated by the following equation. [formula] where E is the liver weight (g) per 100 g of the body weight of the control group, and F is the liver weight (g) per 100 g of the body weight of the group to which the therapeutic agent was administered.

[2] = literature, in words; cited from earlier work
[3] = animal experiments; Cancer Res., 39, 3419 (1979); cited from earlier work
Test 2: acute toxicity = conditions: mouse, in vivo, po, 1000 mg/kg in corn oil, male ddY mice, after seven days
Protocol: The test compounds dissolved in corn oil were administered p.o. to male ddY mice. The acute toxicity was determined based on the mortality after seven days. In respect of the compounds of Examples 1 and 2 of the present invention, the mortality was 0% even at a dose of as high as 1000 mg/kg by oral administration.

[4] = 300 mg/kg, minus value represents a reduction rate

SMILES	Reduction rate of serum Chol. ([1]; 300 mg/kg) [%]	Increase rate of serum HDLChol. [1, 4] [%]	Degree of hepatomegaly (change rate of the liver weight) ([1]; 300 mg/kg) [%]	subsidiary ill effects [2]	mortality at 168 h (Test 2: acute toxicity) [%]	also measured
Nc1ncnc2[nH]ncc12 [1H-pyrazolo[3,4-d]pyrimidine-4-amine]						function to reduce serum lipid (serum lipid): function to reduce serum lipid
CCOC(=O)C(C)(C)Oc1ccc(Cl)cc1 [Clofibrate, reference compound]	35.6	-18.2	12.1	myalgia or hepatic insufficiency; also recorded: likely to lead to gallstone formation		hepatic carcinoma [3]: brings about hepatic carcinoma
CCCCC/C=C\C/C=C\CCCCCCCCOc1c2ncnc(SCC(=O)O)c2nn1C [Example 1, 2-Methyl-3-linoleyloxy-7-carboxymethylthio-pyrazolo[4,3-d]pyrimidine]	73.5	-17.7	17.8		0	Increase rate of serum HDLChol. ([1]; 25 mg/kg): 21.8%; Reduction rate of serum Chol. ([1]; 25 mg/kg): 25.6%; Degree of hepatomegaly (change rate of the liver weight) ([1]; 25 mg/kg): 6.0%; Increase rate of serum HDLChol. ([1]; 50 mg/kg): 13.4%; Reduction rate of serum Chol. ([1]; 50 mg/kg): 35.5%; Degree of hepatomegaly (change rate of the liver weight) ([1]; 50 mg/kg): 7.6%
CCCCCCCCCCCCCCCCOc1c2ncnc(SCC(=O)O)c2nn1C [Example 2, 2-Methyl-3-cetyloxy-7-carboxymethylthio-pyrazolo[4,3-d]pyrimidine]	41.0	14.1	9.2		0	
O=C(O)c1cccnc1 [nicotinic acid]				flashing or gastroenteric troubles		
